# Experimental data as given in patent US20070105878A1, “Purine formulations and methods for managing disorders” (priority 2005, published 2007).
# How the values were obtained:
# Assay type in all cases: in vivo, mouse
# mice = assay: acetylcholine writhing assay
# Description: Experiments were conducted to collect data in an animal model that reflects the gastrointestinal pain component of IBS. In this model, mice were injected intraperitoneally with acetylcholine. Acetylcholine evokes contractions of smooth muscle in the gastrointestinal tract. These contractions are painful and are expressed as a writhing response. Two measurements are made in this model: 1) time to onset of writhing and 2) total writhing time. In these studies, mice were treated with Compound 112 prior to acetylcholine administration and time to onset and total time writhing were measured.
# Compound 112 was tested for its ability to attenuate acetylcholine induce writhing. The anti-writhing response was compared to propentofylline, pentoxyfylline and theophylline. All drugs were administered subcutaneously 30 minutes prior to acetylcholine administration. Acetylcholine was administered at a dose of 3 mg/kg (IP). Acetylcholine writhing was measured for a 10 minute time period. Time to onset and total writhing time were recorded.
# Compound 112 was administered via both routes 30 minutes prior to acetylcholine administration. Acetylcholine was administered at a dose of 3 mg/kg (IP). Acetylcholine writhing was measured for a 10 minute time period. Time to onset and total writhing time were recorded.
# Male CD1 mice [1] = assay: colonic propulsion assay (glass bead expulsion test); conditions: for increase of expulsion time from controls: subcutaneous, 30 minutes prior to glass bead expulsion test
# Source text: The gastrointestinal transit model described in this report is a method for evaluating a test compounds ability to alter colonic propulsive motility. This model is designed to identify pharmacological agents that produce inhibitory effects on propulsive motor activity and is an excellent predictor of drugs that may be useful for the therapy of irritable bowel syndrome. This model can be modified to identify antagonists of constipative drugs or diarrhea producing drugs. In this study, Compound 112 was tested for its ability to affect colonic transport.
# Male CD1 mice (Harlan) 12 weeks of age were used for this study. Mice were kept on a 12 hr light dark cycle and fed ad libitum.
# Compound 112 was administered 30 minutes prior to the colonic propulsion study. After dosing, a 3 mm glass bead was inserted through the anus to a depth of 2 cm into the distal colon using a pre-measured plastic rod. […] A cutoff of 30 minutes was used. Data are expressed as the average ±SEM for each treatment. Data were averaged and analyzed by ANOVA followed by a post-hoc Tukey's test with a p value of less then […] indicating a statistical difference.
# Compound 112 was compared to morphine, topfisopam, propentofylline, pentoxyfylline, and theophylline in the colonic propulsion assay. Drugs were administered subcutaneously at the indicated doses 30 minutes prior to the colonic propulsion assay.
# CD1: ICR mice [2] = assay: tail suspension test in mice
# Source text: There are a number of animal models of depression that are used to identify pharmacological agents that have clinical potential as anti-depressant agents. One such animal model is the mouse tail-suspension model. Mice, suspended by the tail, will rapidly develop behavioral despair that is characterized by immobility. This immobility is thought to reflect a state of lowered ‘mood’ (i.e., depression) in which animals have given up hope of escaping.
# (§1) In both assays, antidepressants increase the amount of struggle and the latency until the first extended immobility. These assays are considered to be good predictors for antidepressant activity and identifies nearly all antidepressant classes including tricyclics, SSRIs, 5-HT1A receptor agonists, and MAOIs.
# (§2) CD1: ICR mice from Harlan 12 weeks of age. Animals were dosed with Compound 112, 30 minutes prior to tail suspension analysis or forced swim test.
# For the tail suspension test, a clip was attached to each mouse tail. Mice (2 per run) were suspended from the pressure transducer in an isolated plexiglass tail suspension chamber. Thirty seconds after suspending the mouse from the transducer, struggle activity was monitored via the transducer that was connected to a computer. The following parameters were measured: 1) number of despair events lasting 5 seconds or longer; 2) Total time in despair; and average time in despair. Data were averaged and analyzed by ANOVA followed by a post-hoc Tukey's test with a p value of less then […] indicating a statistical difference.
# CD1: ICR mice [3] = assay: forced swim test in mice
# Description: FIG. 2 illustrates forced swim test in mice. Mice are administered illustrative compounds of the invention and subjected to the forced swim test for 6 minutes with activity timed for the duration of the test. Compound 112 was administered 30 minutes prior to the swim test.
# The forced swim test is another commonly used animal model for detecting anti-depressant activity of pharmacological agents. This test is complimentary to the tail suspension test. When mice are required to swim in a container with no route of escape they develop a behavioral despair that is characterized by immobility except for small movements needed to remain afloat. This immobility is thought to reflect a state of lowered ‘mood’ (i.e., depression) in which animals have given up hope of escaping. Forced swim test immobility is attenuated by a variety of clinically active antidepressants.
# as §1, §2
# Male C57/B16 mice = assay: experimental autoimmune encephalomyelitis (EAE), animal model of multiple sclerosis, open-field analysis; conditions: daily administration at 6 and 30 mg/kg
# Source text: Experimental autoimmune encephalomyelitis (EAE) is an animal model of multiple sclerosis. This model is produced by administering a myelin basic protein peptide (MBP) fragment that induces an autoimmune response directed to the myelin sheath surrounding motor neurons. Demyelination of neurons within the CNS leads to impaired locomotor function and mirrors symptoms of the human disease. The disease, and the model, appears in exacerbations and remissions and is characterized by loss of nerve conduction and chronic progression of disability. In this study, we assessed the progression of locomotor dysfunction in mice subjected to EAE and treated with an illustrative compound of the invention.
# Male C57/B16 mice (Harlan Sprague Dawley, Indianapolis, Ind.) 8 weeks of age were used for these studies. […]
# Open-field assessments were conducted on days 7, 14, 21 and 28. Mice were evaluated by activity in an open-field activity monitor (Med-Associates-OFA ENV-510). Mice were place in the activity monitor for 15 minutes and a variety of open-field behaviors were monitored including distance traveled, ambulatory time, rearing behavior, time in center of field and stereotypic behavior. Data were averaged and analyzed by ANOVA followed by a post-hoc Tukey's test with a p value of less then […] indicating a statistical difference.
# Male CD1 mice [4] = assay: micturition model of overactive bladder; conditions: 1 hr period after furesomide
# Source text: Micturition is a model of overactive bladder and is achieved through complex neurological mechanisms involving somatic, autonomic and central components. Disorders of micturition can roughly be classified as disturbances of bladder storage or of emptying. Failure to store urine may lead to various forms of incontinence, the main forms of which are urge and stress incontinence. Antimuscarinics are the mainstay of pharmacological treatment of the overactive bladder syndrome, which is characterized by urgency, frequency, and urge incontinence. The present study describes the activity of Compound 112 in an animal model of incontinence.
# Male CD1 mice (Harlan Sprague Dawley, Indianapolis, Ind.) 12 weeks of age were used for these studies. This study was multiplexed with the pulmonary inflammation study. Animals were housed five per cage, kept on a standard 12 hr light cycle. Sample size was 6 animals per group.
# Mice were injected with Compound 112 or vehicle solution as described, and then injected with 1 ml of water (s.c). Furesomide (SigmaAldrich) was formulated at a concentration of 1 mg/ml in water and injected ip at a volume of 10 ml/kg within 5 minutes after drug and water administration. […] Data were averaged and analyzed by ANOVA followed by a post-hoc Tukey's test with a p value of […] indicating a statistical difference.
# [5] = subcutaneous, 30 minutes prior to acetylcholine 3 mg/kg IP
structure (smiles),measurement,setting,value
"CC(=O)CCCCn1c(=O)c2c(ncn2C)n(C)c1=O [pentoxyfylline, reference compound]",activity on acetylcholine induced writhing,mice; [5],had activity
"Cn1c(=O)c2[nH]cnc2n(C)c1=O [theophylline, reference compound]",activity on acetylcholine induced writhing,mice; [5],had activity
"CCC1C(C)=NN=C(c2ccc(OC)c(OC)c2)c2cc(OC)c(OC)cc21 (centres unmarked) [tofisopam, reference compound]",increase of expulsion time from controls,Male CD1 mice [1],less than 3 fold
"CCCn1cnc2c1c(=O)n(CCCCC(C)=O)c(=O)n2C [propentofylline, reference compound]",activity on acetylcholine induced writhing,mice; [5],had activity
CCOCn1cnc2c1c(=O)n(CCCCC(C)(C)O)c(=O)n2C [Compound 112],number of despair events,"CD1: ICR mice [2]; 6 mg/kg, dosed 30 minutes before test",reduced
same,despair time,"CD1: ICR mice [2]; 6 and 30 mg/kg, dosed 30 minutes before test",significantly decreased
same,anti-depressant activity,CD1: ICR mice [2]; higher doses (≧30 mg/kg),lost
same,antidepressant activity,CD1: ICR mice [2]; lower doses (6 and 10 mg/kg),observed
same,anti-depressant activity,CD1: ICR mice [3]; higher doses (≧30 mg/kg),lost
same,antidepressant activity,CD1: ICR mice [3]; lower doses (6 and 10 mg/kg),observed
same,development of locomotor dysfunction,Male C57/B16 mice,significantly attenuated
same,expulsion of a colonically inserted glass bead,"Male CD1 mice [1]; 30 and 100 mg/kg, 30 minutes after administration",significantly slowed
same,extension of expulsion time,"Male CD1 mice [1]; 30 and 100 mg/kg, vs vehicle",> 5 fold
same,increase of expulsion time from controls,Male CD1 mice [1],5 fold
same,number of urination events,Male CD1 mice [4],significantly reduced
same,urinary volume,Male CD1 mice [4],significantly reduced
same,"potency, oral vs subcutaneous administration",mice; 30 minutes prior to acetylcholine 3 mg/kg IP,significantly more potent
same,activity on onset time,"mice; SC, 30 mg/kg",produced activity
same,activity on onset time,"mice; oral, 10 mg/kg",significant activity
same,activity on acetylcholine induced writhing,mice; [5],had activity
same,"overall potency vs theophylline, pentoxyfylline and propentofylline",mice; [5],more potent
same,"potency in attenuating writhing time vs propentofylline, pentoxyfylline and theophylline",mice; [5],significantly more potent
same,"potency in delaying onset of writhing vs propentofylline, pentoxyfylline and theophylline",mice; [5],significantly more potent
